Measured values as given in patent US10864245B2, “Activation and expansion of NKG2C+ NK cells” (Deutsches Rheuma-Forschungszentrum Berlin, priority 2018, dated 2020).

How the values were obtained:
adaptive NKG2C+ NK cells = assay: Stimulation of purified NK cells with peptide-pulsed RMA-S/HLA-E (effector functions); type: cell-based, human; settings: RMA-S/HLA-E pulsed with 300 μM peptide; 6 h; NK cells from healthy HCMV+ individuals
Method: HLA-E surface stabilization was induced as described previously^30. In brief, 300 μM synthetic peptides (Peptides&Elephants) were added to target cells cultured at a density of 2×10^6 cells/ml in serum-free Opti-MEM (ThermoFisher) and incubated for 16 h at 37° C. Peptide-pulsed cells were either stained for FACS analysis of HLA-E surface expression or washed with complete media and used in co-cultures. For pulse-chase experiments, cells were pulsed as above, washed twice, and resuspended in Opti-MEM without peptide. HLA-E surface expression was monitored by FACS analysis at indicated time points.
CD56^+ MACS-enriched cells were stained with viability dye, CD3, and CD56, FACS-sorted for viable CD3^−CD56^+ NK cells, and rested overnight in complete medium. Purified NK cells were stimulated by co-culture with peptide-pulsed (300 μM) irradiated (30 Gy) target cells at a 2:1 NK:target ratio for 6 h in the presence of 300 μM synthetic peptides.
For blocking experiments, rested FACS-sorted viable CD3^− CD56^dim NKG2A^− NKG2C+ NK cells were treated with 20 μg/ml IgG1 isotype control or anti-CD94 antibody (both RnD Systems) for 15 min prior to start of the co-culture.

NKG2C+ NK cells = assay: In vitro culture of CD56dim NK cells from HCMV− donors with peptide-pulsed targets and IL-15 (proliferation, accumulation); type: cell-based, human; settings: RMA-S/HLA-E/LFA-3, IL-15, IL-12/18 during initial 20 h, 14 days
Method: CD56^+ MACS-enriched cells from HCMV^− donors were stained with viability dye, CD3, and CD56, FACS-sorted for viable CD3^− CD56^dim NK cells, and rested overnight in complete medium. Purified CD56^dim NK cells were labeled with 2 μM CellTrace violet (Thermo Fisher) according to the manufacturer's instructions. 5×10^5 labeled NK cells were cultured with 1×10^5 peptide-pulsed […] irradiated (30 Gy) target cells in complete medium containing 10 ng/ml IL-15 (Miltenyi Biotec) in U-bottom 96-well plates (Greiner Bio-One) for the indicated times. Complete medium containing IL-15 was replaced every third to fourth day. On days 4, 7, and 11 of culture, 1×10^5 fresh peptide-pulsed irradiated target cells were added to the cultures.
Where indicated, 10 ng/ml IL-12 (Miltenyi Biotec) and 100 ng/ml IL-18 (MBL) were added at the start of co-cultures. After 20 h of culture, the cells were washed 3 times and resuspended in complete medium containing 10 ng/ml IL-15. Control wells without IL-12/18 were treated equally. To determine NKG2C+ NK cell numbers per μl of culture medium, CountBright Absolute Counting Beads (ThermoFisher) were used according to the manufacturer's instructions.
Proliferation and replication indices^60 of NKG2C+ cells were calculated using the proliferation analysis platform included in FlowJo v9.9 (FlowJo LLC) and normalized to those of NKG2C^− cells in the same condition.

Sequence: VMAPRTLVL
- TNF, IFN-γ, CD107a, and CCL3 expression by adaptive NKG2C+ NK cells (adaptive NKG2C+ NK cells): differentially triggered
- NKG2C+ NK-cell absolute counts and frequencies (NKG2C+ NK cells): increase of NKG2C+ NK-cell absolute counts as well as frequencies
